In patent publication US7977379B2, “Method for angiogenesis inhibition or immunostimulation” (priority 2002, dated 2011):

Columns and labels:
[1] = tested on: angiogenesis induced by means of MATRIGEL matrix (heparin, a-FGF); assay: Test Example 1: angiogenesis induced by […] matrix transplanted subcutaneously (method of Passaniti et al); type: in vivo, C57BL/6 female mice; details: for angiogenesis inhibition effect (in words): MATRIGEL weight and hemoglobin vs control group; for MATRIGEL Matrix weight / Quantity of hemoglobin: sixth day, n=5, mean±SE; for MATRIGEL Matrix weight: freeze-dried
Excerpt: Angiogenesis inhibition action of anhydrous glutamic acid, its derivatives, and various processed materials containing them concerning the present invention was examined by degree of angiogenesis induced by means of […]™ matrix (made by Becton Dikinson Labware Company, it is “cell culture backing material”, following “[…]”.) according to a method of Passaniti et al (Laboratory Invest., Vol. 67, Page 519-528, 1992).
An example of the […] matrix is shown with the following: BD Matrigel Basement Membrane Matrix is a solubilized basement membrane preparation extracted from the Engelbreth-Holm-Swarm (EHS) mouse sarcoma, a tumor rich in ECM proteins. Its major component is laminin, followed by collagen IV, heparan sulfate proteoglycans, entactin and nidogen.35 It also contains TGF-β fibroblast growth factor, tissue plasminogen activator36 and other growth factors which occur naturally in the EHS tumor. At room temperature, BD Matrigel Matrix polymerizes to produce biologically active matrix material resembling the mammalian cellular basement membrane.
More specifically, normal mice (5 mice/1 group) were used after breeding C57BL/6 female mice (5 week old, purchased from Charles River JAPAN, Inc.) preliminarily for one week. While cooling test materials as shown in the following, each of the test materials 0.5 ml were transplanted to subcutaneous of abdomen of the mice. […] was taken out on the sixth day after transplantation, and state of angiogenesis was observed. In addition, the […] was freeze-dried, and it was estimated the weight. Furthermore, pure water 1 ml was added to the […]. After homogenizing by Polytron and centrifuging at 2000 rpm for five minutes, supernatant was filtrated through filter with 0.2 μm and hemoglobin dosage was measured by using Hemoglobin-TestWako™ (made by Wako Pure Chemical Industries, Ltd.).
Group 0 of nothing addition: […]
Control group: […], heparin (64 units), Acidic Fibroblast Growth Factor (it is abbreviated to a-FGF as follows.) (1 ng/ml)
Group 1 of test material addition: […], heparin (64 units), a-FGF (1 ng/ml), sample 3 (800 μg/ml)
Group 2 of test material addition: […], heparin (64 units), a-FGF (1 ng/ml), sample 3 (400 μg/ml)
Group 3 of test material addition: […], heparin (64 units), a-FGF (1 ng/ml), sample 3 (200 μg/ml)
Group 4 of test material addition: […], heparin (64 units), a-FGF (1 ng/ml), sample 4 (800 μg/ml)
Group 5 of test material addition: […], heparin (64 units), a-FGF (1 ng/ml), sample 1 (600 μg/ml)
Group 6 of test material addition: […], heparin (64 units), a-FGF (1 ng/ml), sample 2 (800 μg/ml)
Group 7 of test material addition: […], heparin (64 units), a-FGF (1 ng/ml), sample1+sample 3 (for each 200 μg/ml)
Group 8 of test material addition: […], heparin (64 units), a-FGF (1 ng/ml), sample 5 (600 μg/ml)
Group 9 of test material addition: […], heparin (64 units), a-FGF (1 ng/ml), reference sample 1 (800 μg/ml)
As is apparent from each table, in control group, angiogenesis was promoted remarkably and weight of […] and hemoglobin dosage were increased compared with a group 0 of nothing addition. […] However, the angiogenesis inhibition effect was small with reference sample 1 (hot water extract of an agaricus mushroom).

[2] = tested on: angiogenesis induced by means of MATRIGEL matrix (heparin, a-FGF); assay: Test Example 4: angiogenesis induced by […] matrix (same method as test example 1); type: in vivo, C57BL/6 female mice; details: for angiogenesis inhibition effect (in words): MATRIGEL weight and hemoglobin vs control group; for MATRIGEL weight / Quantity of hemoglobin: sixth day, n=5, mean±SE
Experimental: More specifically, normal mice (5 mice/1 group) were used after breeding C57BL/6 female mice (5 week old, purchased from Charles River JAPAN, Inc.) preliminarily for one week. While cooling test materials as shown in the following, each of the test materials 0.5 ml were transplanted to subcutaneous of abdomen of the mice. […] was taken out on the sixth day after transplantation, and state of angiogenesis was observed. In addition, the […] was freeze-dried, and it was weighed. […] Group 0 of nothing addition: […]

[3] = material 800 μg/mL in MATRIGEL with heparin and a-FGF
[4] = material 200 μg/mL in MATRIGEL with heparin and a-FGF
[5] = material 400 μg/mL in MATRIGEL with heparin and a-FGF

SMILES	angiogenesis inhibition effect (in words) [1]	MATRIGEL Matrix weight [1, 3]	Quantity of hemoglobin [1, 3]	angiogenesis inhibition effect (in words) [2]	MATRIGEL weight [2, 3]	Quantity of hemoglobin [2, 3]	further results
Cl.NC(CCC(=O)O)C(=O)O (racemic) [sample 4, anhydrous DL-glutamate acid hydrochloride]	slightly low, but almost equal to sample 3	237.3 ± 30.1 mg	13.0 ± 2.9 mg	–	–	–	–
O=C1CCC(C(=O)O)N1.[Na] (racemic) [sample 9, DL-pyroglutamic acid sodium]	–	–	–	slightly low, but almost equal to sample 8	209.0 ± 30.8 mg	15.8 ± 2.7 mg/MATRIGEL	–
C[C@H](N)C(=O)O [alanine, reference compound]	–	–	–	not recognized	–	–	–
O=C(O)[C@@H]1CCCN1 [proline, reference compound]	–	–	–	not recognized	–	–	–
Cl.N[C@@H](CCC(=O)O)C(=O)O [sample 3, anhydrous L-glutamate acid hydrochloride]	excellent angiogenesis inhibition effect	110.9 ± 11.4 mg	3.9 ± 0.5 mg	–	–	–	MATRIGEL Matrix weight [1, 4]: 276.6 ± 27.6 mg; Quantity of hemoglobin [1, 4]: 21.5 ± 4.0 mg; MATRIGEL Matrix weight [1, 5]: 232.2 ± 52.7 mg; Quantity of hemoglobin [1, 5]: 15.5 ± 4.6 mg
O=C1CC[C@@H](C(=O)O)N1.[Na] [sample 8, L-pyroglutamic acid sodium]	–	–	–	excellent angiogenesis inhibition effect	121.5 ± 28.1 mg	4.8 ± 1.2 mg/MATRIGEL	MATRIGEL weight [2, 4]: 265.3 ± 18.6 mg; Quantity of hemoglobin [2, 4]: 23.4 ± 2.0 mg/MATRIGEL; MATRIGEL weight [2, 5]: 190.2 ± 30.4 mg; Quantity of hemoglobin [2, 5]: 17.5 ± 3.6 mg/MATRIGEL
